One data set deals with IMP-1 (Serratia marcescens, UniProt P52699). The experiment in a line: biochemical. Type of data set: biochemical. The settings on record: CCF2-FA substrate, 2 hours at 25° C; read-out: IMP-1 IC50. The procedure:
(§1) Enzyme Activity: Determination of IC50
(§2) The Class B enzyme activities were measured in the presence of the test inhibitor in a fluorescence assay against a commercially available substrate consisting of a cephalosporin core linking 7-hydroxycoumarin to fluorescein (CCF2-FA). […] In a 384-well microplate, the test inhibitor was incubated with the metallo-β-lactamase enzyme and the substrate for 2 hours at 25° C. […] The IC50 value was determined from semi-logarithmic plots of enzyme inhibition versus inhibitor concentration, with a curve generated using a 4-parameter fit.

In the next data set the target is NDM-1 (Klebsiella pneumoniae, UniProt C7C422). In words: biochemical. Type of data set: biochemical. The settings on record: CCF2-FA substrate, 2 hours at 25° C; read-out: NDM-1 IC50. The procedure: as §1, §2
Sequence of NDM-1 (C7C422 whole entry, looked up, species assumed): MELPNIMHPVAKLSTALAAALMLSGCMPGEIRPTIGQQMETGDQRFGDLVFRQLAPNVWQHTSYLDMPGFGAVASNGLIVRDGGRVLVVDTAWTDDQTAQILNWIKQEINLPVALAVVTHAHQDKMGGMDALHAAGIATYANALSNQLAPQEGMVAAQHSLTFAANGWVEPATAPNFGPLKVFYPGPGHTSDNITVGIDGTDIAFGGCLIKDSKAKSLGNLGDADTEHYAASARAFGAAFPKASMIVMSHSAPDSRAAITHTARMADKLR
Data set [1] deals with P. aeruginosa expressing IMP-1, efflux+ (MB9798). It counts as cell-based, Pseudomonas aeruginosa. The settings on record: for P. aeruginosa expressing IMP-1, efflux+ (MB9798) MITC95: imipenem at 2 μg/mL, in the presence of a class A, C, D serine β-lactamase inhibitor closely related to relebactam; for Efflux ratio: ratio MITC95 PA_9798/MITC95 PA_9799. The text has this:
(§3) The strain background is Pseudomonas aeruginosa PAO1.

In a further data set the target is VIM-1 (Pseudomonas aeruginosa (strain ATCC 15692 / DSM 22644 / CIP 104116 / JCM 14847 / LMG 12228 / 1C / PRS 101 / PAO1), UniProt A0A0F7KYQ8). In words: biochemical. The settings on record: CCF2-FA substrate, 2 hours at 25° C. The method, then:
as §1, §2

Data set [2] relates to P. aeruginosa expressing IMP-1, efflux− (MB9799). In words: Efflux: concentration of MBL inhibitor which restores susceptibility to imipenem. It counts as cell-based, Pseudomonas aeruginosa. The settings on record: imipenem at 2 μg/mL, in the presence of a class A, C, D serine β-lactamase inhibitor closely related to relebactam.
Text: as §3

The test system of data set [3] is Serratia marcescens expressing IMP-1 (CL5741). It counts as cell-based. The settings on record: with imipenem 1 μg/ml; 95% inhibition of bacterial growth. The procedure: (§4) Antibiotic Potentiation Activity: Determination of Synergistic Concentration
(§5) The bacterial strains tested included the clinical strains Escherichia coli expressing NDM-1 (CLB30005, CLB30016), Serratia marcescens expressing IMP-1 (CL5741), and Klebsiella pneumoniae expressing VIM-1 (IHMA599644). Inhibitor activity was measured in the presence and absence of imipenem in a 384-well microplate.
(§6) The clinical strains CLB30016, CL5741 and IHMA599644 were grown on trypticase soy agar containing 5% sheep's blood. The bacteria on agar plates were incubated at 35° C. with humidity overnight. The following day, individual colonies from each clinical strain were picked and resuspended in 5 ml saline to attain an OD600 of […], for CLB30016, CL5741 and IHMA599644, respectively. These were further diluted 1:100 into 1.1×CAMHB and used to inoculate the test wells as described below.
(§7) Imipenem in 10 mM 3-(N-morpholino)propanesulfonic acid (MOPS, pH 7) was stored in single use aliquots at −80° C. […] On the day of the assay, 4 μl of antibiotic was added to 45 ul of bacteria followed by 1 μl of test compound and mixed by pipetting and with an orbital shaker. The concentration of antibiotic used in the assay was 1 μg/ml. Microplates were covered and incubated at 35° C. for 22 hours to 24 hours. At the end of the incubation, absorbance was determined using a spectrophotometer.
(§8) For example, in general, the compounds of Examples 1-379 were determined to restore susceptibility to imipenem for one or more of the test organisms at concentrations of 100 μM or less.

The subject of data set [4] is Escherichia coli expressing NDM-1 (CLB30005, CLB30016). Type of data set: cell-based. The settings on record: with imipenem 1 μg/ml; 95% inhibition of bacterial growth. The procedure: as §4, §5, §6, §7, §8
For data set [5], the system named is Klebsiella pneumoniae expressing VIM-1 (IHMA599644). It counts as cell-based. The settings on record: with imipenem 1 μg/ml; 95% inhibition of bacterial growth. The procedure: as §4, §5, §6, §7, §8

Sequence of IMP-1 (P52699 whole entry, looked up, species assumed): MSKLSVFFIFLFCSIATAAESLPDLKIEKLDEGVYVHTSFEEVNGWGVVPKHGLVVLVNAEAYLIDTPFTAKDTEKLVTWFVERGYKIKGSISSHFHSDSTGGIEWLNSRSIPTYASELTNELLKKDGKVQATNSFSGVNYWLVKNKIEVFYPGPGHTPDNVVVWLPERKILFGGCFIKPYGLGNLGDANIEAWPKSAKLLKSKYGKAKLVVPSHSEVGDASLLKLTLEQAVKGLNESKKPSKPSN

A word on the IC50: it is the concentration at which inhibition is half-maximal. As for `NCCS(=O)(=O)c1ccc(-c2ccc3scnc3c2)c(-c2nnn[nH]2)c1S(N)(=O)=O.O=C(O)C(F)(F)F` [Example 174, 2-((4-(benzo[d]thiazol-5-yl)-2-sulfamoyl-3 (1H-tetrazol-5-yl)phenyl)sulfonyl)ethanaminium 2,2,2-trifluoroacetate], the IC50 on IMP-1 amounted to 0.22 nM; at NDM-1, 0.392 nM; against VIM-1, 0.14 nM. Also, in data set [1], the “P. aeruginosa expressing IMP-1, efflux+ (MB9798) MITC95” value is 3.125 µM. Also, the Efflux ratio in data set [1] amounted to 8.00. For the same molecule, the “P. aeruginosa expressing IMP-1, efflux− (MB9799) MITC95” value in data set [2] amounted to 0.3906 µM. Further, the “Serratia marcescens expressing IMP-1 (CL5741) MITC95” value in data set [3] was 0.7813 µM. For the same molecule, in data set [4], the “Escherichia coli expressing NDM-1 (CLB30016) MITC95” value is 0.3906 µM. Further, the “Klebsiella pneumoniae expressing VIM-1 (IHMA599644) MITC95” value in data set [5] amounted to 1.563 µM.

Turning to `NS(=O)(=O)c1c(S(=O)(=O)C2CNC2)ccc(-c2ccc3scnc3c2)c1-c1nnn[nH]1.O=C(O)C(F)(F)F` [Example 114, 3-((4-(benzo[d]thiazol-5-yl)-2-sulfamoyl-3-(1H-tetrazol-5-yl)phenyl)sulfonyl)azetidin-1-ium 2,2,2-trifluoroacetate], the IC50 amounted to 0.261 nM at IMP-1, 0.15 nM at NDM-1 and 0.116 nM at VIM-1. Moreover, the “P. aeruginosa expressing IMP-1, efflux+ (MB9798) MITC95” value in data set [1] is 6.25 µM. Further, the Efflux ratio in data set [1] is given as 8.00. Further, the “P. aeruginosa expressing IMP-1, efflux− (MB9799) MITC95” value in data set [2] is 0.7813 µM. Moreover, in data set [3], the “Serratia marcescens expressing IMP-1 (CL5741) MITC95” value was 0.7813 µM. For the same molecule, in data set [4], the “Escherichia coli expressing NDM-1 (CLB30016) MITC95” value is 0.3906 µM. In addition, in data set [5], the “Klebsiella pneumoniae expressing VIM-1 (IHMA599644) MITC95” value turned out to be 1.563 µM.

`Nc1nc2c(-c3ccc(S(=O)(=O)C4CNC4)c(S(N)(=O)=O)c3-c3nn[nH]n3)cccn2n1` [Example 216, 3-(2-amino-[,2,4]triazolo[1,5-a]pyridin-8-yl)-6-(azetidin-3-ylsulfonyl)-2-(2H-tetrazol-5-yl)benzenesulfonamide]: the values for the IC50 at IMP-1, on NDM-1 and at VIM-1 were 1.66 nM, 0.102 nM and 0.151 nM, respectively. Also, in data set [1], the “P. aeruginosa expressing IMP-1, efflux+ (MB9798) MITC95” value was 6.25 µM. Besides, in data set [1], the Efflux ratio was 4.00. Moreover, the “P. aeruginosa expressing IMP-1, efflux− (MB9799) MITC95” value in data set [2] was 1.563 µM. The “Serratia marcescens expressing IMP-1 (CL5741) MITC95” value in data set [3] came out at 3.125 µM. For the same molecule, the “Escherichia coli expressing NDM-1 (CLB30016) MITC95” value in data set [4] stood at 12.5 µM. Besides, the “Klebsiella pneumoniae expressing VIM-1 (IHMA599644) MITC95” value in data set [5] turned out to be 6.25 µM.

For `Nc1nc2cccc(-c3ccc(S(=O)(=O)[C@H]4CC[C@@H](N)CC4)c(S(N)(=O)=O)c3-c3nn[nH]n3)c2[nH]1` [Example 177, 3-(2-amino-3H-benzo[d]imidazol-4-yl)-6-((1s,4s)-4-aminocyclohexylsulfonyl)-2-(2H-tetrazol-5-yl)benzenesulfonamide], the IC50 at IMP-1 was 1.35 nM; on NDM-1, 0.264 nM; on VIM-1, 0.293 nM. In data set [1], the “P. aeruginosa expressing IMP-1, efflux+ (MB9798) MITC95” value was 0.7813 µM. In addition, in data set [1], the Efflux ratio is on record as 1.00. For the same molecule, the “P. aeruginosa expressing IMP-1, efflux− (MB9799) MITC95” value in data set [2] amounted to 0.7813 µM. The “Serratia marcescens expressing IMP-1 (CL5741) MITC95” value in data set [3] turned out to be 0.7813 µM. In data set [4], the “Escherichia coli expressing NDM-1 (CLB30016) MITC95” value came out at 0.7813 µM. Also, the “Klebsiella pneumoniae expressing VIM-1 (IHMA599644) MITC95” value in data set [5] turned out to be 1.563 µM.

With `NS(=O)(=O)c1c(S(=O)(=O)C2CNC2)ccc(-c2cccc3scnc23)c1-c1nn[nH]n1` [Example 201, 6-(Azetidin-3-ylsulfonyl)-3-(benzo[d]thiazol-4-yl)-2-(2H-tetrazol-5-yl)benzenesulfonamide], the IC50 on IMP-1 was 0.153 nM; on NDM-1, 0.0956 nM; against VIM-1 it was 0.176 nM. Also, the “P. aeruginosa expressing IMP-1, efflux+ (MB9798) MITC95” value in data set [1] stood at 1.563 µM. Further, in data set [1], the Efflux ratio came to 2.00. The “P. aeruginosa expressing IMP-1, efflux− (MB9799) MITC95” value in data set [2] was 0.7813 µM. In data set [3], the “Serratia marcescens expressing IMP-1 (CL5741) MITC95” value was found to be 1.563 µM. The “Escherichia coli expressing NDM-1 (CLB30016) MITC95” value in data set [4] came to 0.7813 µM. Besides, the “Klebsiella pneumoniae expressing VIM-1 (IHMA599644) MITC95” value in data set [5] amounted to 3.125 µM.

For the molecule `NCCS(=O)(=O)c1ccc(-c2ccc3c(c2)CNC3=O)c(-c2nnn[nH]2)c1S(N)(=O)=O.O=C(O)C(F)(F)F` [Example 166, 2-((4-(1-oxoisoindolin-5-yl)-2-sulfamoyl-3-(1H-tetrazol-5-yl)phenyl)sulfonyl)ethanaminium 2,2,2-trifluoroacetate], the results for the IC50 on IMP-1, on NDM-1 and against VIM-1 were 1.51 nM, 2.79 nM and 0.327 nM, respectively. Also, in data set [1], the “P. aeruginosa expressing IMP-1, efflux+ (MB9798) MITC95” value was determined as 12.5 µM. Moreover, in data set [1], the Efflux ratio came to 8.00. Moreover, the “P. aeruginosa expressing IMP-1, efflux− (MB9799) MITC95” value in data set [2] was found to be 1.563 µM. In data set [3], the “Serratia marcescens expressing IMP-1 (CL5741) MITC95” value turned out to be 3.125 µM. For the same molecule, the “Escherichia coli expressing NDM-1 (CLB30016) MITC95” value in data set [4] turned out to be 1.563 µM. The “Klebsiella pneumoniae expressing VIM-1 (IHMA599644) MITC95” value in data set [5] came out at 6.25 µM.

Turning to `C[S+]([O-])c1ccc(-c2ccc(C3CCNCC3)cc2)c(-c2nnn[nH]2)c1S(N)(=O)=O` (stereo not drawn) [Example 235, 4-(methylsulfinyl)-4′-(piperidin-4-yl)-2-(1H-tetrazol-5-yl)-[1,1′-biphenyl]-3-sulfonamide], the IC50 amounted to 23.6 nM at IMP-1, 31.9 nM on NDM-1 and 8.18 nM on VIM-1. Besides, the “P. aeruginosa expressing IMP-1, efflux+ (MB9798) MITC95” value in data set [1] amounted to 50 µM. The Efflux ratio in data set [1] came to 8.00. Besides, the “P. aeruginosa expressing IMP-1, efflux− (MB9799) MITC95” value in data set [2] worked out at 6.25 µM. Besides, the “Serratia marcescens expressing IMP-1 (CL5741) MITC95” value in data set [3] is 12.5 µM. Also, the “Escherichia coli expressing NDM-1 (CLB30016) MITC95” value in data set [4] came out at 12.5 µM. In addition, the “Klebsiella pneumoniae expressing VIM-1 (IHMA599644) MITC95” value in data set [5] was 50 µM.

For `NCCS(=O)(=O)c1ccc(-c2cccc3nc(N)[nH]c23)c(-c2nn[nH]n2)c1S(N)(=O)=O` [Example 70, 3-(2-amino-3H-benzo[d]imidazol-4-yl)-6-(2-aminoethylsulfonyl)-2-(2H-tetrazol-5-yl)benzenesulfonamide], the values for the IC50 on IMP-1, on NDM-1 and at VIM-1 were 0.796 nM, 0.251 nM and 0.37 nM, respectively. In addition, the “P. aeruginosa expressing IMP-1, efflux+ (MB9798) MITC95” value in data set [1] came to 0.4453 µM. Also, the Efflux ratio in data set [1] stood at 1.00. Further, in data set [2], the “P. aeruginosa expressing IMP-1, efflux− (MB9799) MITC95” value turned out to be 0.4453 µM. Besides, the “Serratia marcescens expressing IMP-1 (CL5741) MITC95” value in data set [3] is 0.6406 µM. Also, in data set [4], the “Escherichia coli expressing NDM-1 (CLB30016) MITC95” value is 0.25 µM. In data set [5], the “Klebsiella pneumoniae expressing VIM-1 (IHMA599644) MITC95” value came out at 0.8906 µM.

In the case of `Nc1nc2c(-c3ccc(S(=O)(=O)C4CNC4)c(S(N)(=O)=O)c3-c3nn[nH]n3)ccc(C(=O)O)c2s1` [Example 38, 2-amino-4-(4-(azetidin-3-ylsulfonyl)-3-sulfamoyl-2-(2H-tetrazol-5-yl)phenyl)benzo[d]thiazole-7-carboxylic Acid], the IC50 came out at 0.126 nM on IMP-1, 0.0286 nM at NDM-1 and 0.341 nM on VIM-1. Moreover, the “P. aeruginosa expressing IMP-1, efflux+ (MB9798) MITC95” value in data set [1] came out at 9.375 µM. The Efflux ratio in data set [1] is on record as 1.50. In data set [2], the “P. aeruginosa expressing IMP-1, efflux− (MB9799) MITC95” value came out at 6.25 µM. For the same molecule, the “Serratia marcescens expressing IMP-1 (CL5741) MITC95” value in data set [3] was found to be 12.5 µM. For the same molecule, the “Escherichia coli expressing NDM-1 (CLB30016) MITC95” value in data set [4] is 31.25 µM. In addition, the “Klebsiella pneumoniae expressing VIM-1 (IHMA599644) MITC95” value in data set [5] is 25 µM.

These data come from patent publication US10227331B2 (priority 2015, dated 2019).
